Source: ChEMBL document CHEMBL2440076, “New triarylpyrazoles as broad-spectrum anticancer agents: design, synthesis, and biological evaluation” (Eur J Med Chem, 2013)

Assays:
[1] = tested on: BT-549; experiment: Growth inhibition of human BT549 cells assessed as cell growth at 10 uM after 48 hrs by sulforhodamine B assay; type: functional; details: BT-549, 48 h, read-out: Activity
[2] = tested on: PC-3; experiment: Growth inhibition of human PC3 cells assessed as cell growth at 10 uM after 48 hrs by sulforhodamine B assay; type: functional; details: PC-3, 48 h, read-out: Activity
[3] = tested on: TK-10; experiment: Growth inhibition of human TK10 cells assessed as cell growth at 10 uM after 48 hrs by sulforhodamine B assay; type: functional; details: TK-10, 48 h, read-out: Activity
[4] = tested on: SN12C; experiment: Growth inhibition of human SN12C cells assessed as cell growth at 10 uM after 48 hrs by sulforhodamine B assay; type: functional; details: read-out: Activity
[5] = tested on: CAKI-1; experiment: Growth inhibition of human CAKI-1 cells assessed as cell growth at 10 uM after 48 hrs by sulforhodamine B assay; type: functional; details: CAKI-1, 48 h, read-out: Activity
[6] = tested on: SW-620; experiment: Growth inhibition of human SW620 cells after 48 hrs by sulforhodamine B assay; type: functional; details: SW-620, 48 h
[7] = tested on: HT-29; experiment: Growth inhibition of human HT-29 cells after 48 hrs by sulforhodamine B assay; type: functional; details: HT-29, 48 h
[8] = tested on: KM12; experiment: Growth inhibition of human KM12 cells after 48 hrs by sulforhodamine B assay; type: functional, cell-based; details: KM12, 48 h
[9] = tested on: NCI-H522; experiment: Growth inhibition of human NCI-H522 cells after 48 hrs by sulforhodamine B assay; type: functional; details: NCI-H522, 48 h
[10] = tested on: NCI-H23; experiment: Growth inhibition of human NCI-H23 cells after 48 hrs by sulforhodamine B assay; type: functional; details: NCI-H23, 48 h
[11] = tested on: SR; experiment: Growth inhibition of human SR cells after 48 hrs by sulforhodamine B assay; type: functional
[12] = tested on: CCRF-CEM; experiment: Growth inhibition of human CCRF-CEM cells after 48 hrs by sulforhodamine B assay; type: functional
[13] = tested on: SK-MEL-5; experiment: Growth inhibition of human SK-MEL-5 cells assessed as cell growth at 10 uM after 48 hrs by sulforhodamine B assay; type: functional; details: SK-MEL-5, 48 h, read-out: Activity
[14] = tested on: SK-MEL-28; experiment: Growth inhibition of human SK-MEL-28 cells assessed as cell growth at 10 uM after 48 hrs by sulforhodamine B assay; type: functional; details: SK-MEL-28, 48 h, read-out: Activity
[15] = tested on: Malme-3M; experiment: Growth inhibition of human MALME-3M cells assessed as cell growth at 10 uM after 48 hrs by sulforhodamine B assay; type: functional; details: read-out: Activity
[16] = tested on: U-251; experiment: Growth inhibition of human U251 cells assessed as cell growth at 10 uM after 48 hrs by sulforhodamine B assay; type: functional; details: U-251, 48 h, read-out: Activity
[17] = tested on: SW-620; experiment: Growth inhibition of human SW620 cells assessed as cell growth at 10 uM after 48 hrs by sulforhodamine B assay; type: functional; details: SW-620, 48 h, read-out: Activity
[18] = tested on: HT-29; experiment: Growth inhibition of human HT-29 cells assessed as cell growth at 10 uM after 48 hrs by sulforhodamine B assay; type: functional; details: HT-29, 48 h, read-out: Activity
[19] = tested on: KM12; experiment: Growth inhibition of human KM12 cells assessed as cell growth at 10 uM after 48 hrs by sulforhodamine B assay; type: functional; details: KM12, 48 h, read-out: Activity
[20] = tested on: NCI-H23; experiment: Growth inhibition of human NCI-H23 cells assessed as cell growth at 10 uM after 48 hrs by sulforhodamine B assay; type: functional; details: NCI-H23, 48 h, read-out: Activity
[21] = tested on: HOP-92; experiment: Growth inhibition of human HOP92 cells assessed as cell growth at 10 uM after 48 hrs by sulforhodamine B assay; type: functional; details: HOP-92, 48 h, read-out: Activity
[22] = tested on: MCF7; experiment: Growth inhibition of human MCF7 cells after 48 hrs by sulforhodamine B assay; type: functional; details: MCF7, 48 h
[23] = tested on: RXF 393; experiment: Growth inhibition of human RXF393 cells after 48 hrs by sulforhodamine B assay; type: functional; details: RXF 393, 48 h
[24] = tested on: CAKI-1; experiment: Growth inhibition of human CAKI-1 cells after 48 hrs by sulforhodamine B assay; type: functional; details: CAKI-1, 48 h
[25] = tested on: A498; experiment: Growth inhibition of human A498 cells after 48 hrs by sulforhodamine B assay; type: functional, cell-based; details: A498, 48 h
[26] = tested on: ACHN; experiment: Growth inhibition of human ACHN cells after 48 hrs by sulforhodamine B assay; type: functional
[27] = tested on: OVCAR-8; experiment: Growth inhibition of human OVCAR8 cells after 48 hrs by sulforhodamine B assay; type: functional; details: OVCAR-8, 48 h
[28] = tested on: OVCAR-5; experiment: Growth inhibition of human OVCAR5 cells after 48 hrs by sulforhodamine B assay; type: functional; details: OVCAR-5, 48 h
[29] = tested on: OVCAR-4; experiment: Growth inhibition of human OVCAR4 cells after 48 hrs by sulforhodamine B assay; type: functional; details: OVCAR-4, 48 h
[30] = tested on: SK-MEL-5; experiment: Growth inhibition of human SK-MEL-5 cells after 48 hrs by sulforhodamine B assay; type: functional; details: SK-MEL-5, 48 h
[31] = tested on: UACC-257; experiment: Growth inhibition of human UACC257 cells after 48 hrs by sulforhodamine B assay; type: functional; details: UACC-257, 48 h
[32] = tested on: U-251; experiment: Growth inhibition of human U251 cells after 48 hrs by sulforhodamine B assay; type: functional; details: U-251, 48 h
[33] = tested on: HOP-62; experiment: Growth inhibition of human HOP62 cells assessed as cell growth at 10 uM after 48 hrs by sulforhodamine B assay; type: functional; details: HOP-62, 48 h, read-out: Activity
[34] = tested on: A549; experiment: Growth inhibition of human A549/ATCC cells assessed as cell growth at 10 uM after 48 hrs by sulforhodamine B assay; type: functional; details: A549, 48 h, read-out: Activity
[35] = tested on: RPMI-8226; experiment: Growth inhibition of human RPMI8226 cells assessed as cell growth at 10 uM after 48 hrs by sulforhodamine B assay; type: functional; details: RPMI-8226, 48 h, read-out: Activity
[36] = read-out: LC50 (the source's name)

## O=C(Nc1cccc(-n2cc(-c3ccncc3)c(-c3ccc(Cl)c(O)c3)n2)c1)Nc1cccc(C(F)(F)F)c1
[1]
  growth at 10 µM: 36%
[2]
  growth at 10 µM: 4.28%
[3]
  growth at 10 µM: 21.9%
[4]
  growth at 10 µM: 14.6%
[5]
  growth at 10 µM: 30.1%
[6]
  GI50: 3.83 µM
  TGI: > 32.5 µM
[6]; [36]
  CC50: > 32.5 µM
[7]
  GI50: 9.82 µM
  TGI: > 32.5 µM
[7]; [36]
  CC50: > 32.5 µM
[8]
  GI50: 1.33 µM
  TGI: > 32.5 µM
[8]; [36]
  CC50: > 32.5 µM
[9]
  GI50: 1.46 µM
  LC50 (concentration killing 50% of cells): > 32.5 µM
  TGI: 14.5 µM
[10]
  GI50: 1.9 µM
  LC50: > 32.5 µM
  TGI: > 32.5 µM
[11]
  GI50: 1.82 µM
  TGI: 20 µM
[11]; [36]
  CC50: > 32.5 µM
[12]
  GI50: 1.4 µM
  LC50: > 32.5 µM
  TGI: > 32.5 µM
[13]
  growth at 10 µM: -25.5%
[14]
  growth at 10 µM: 29.4%
[15]
  growth at 10 µM: 1.16%
[16]
  growth at 10 µM: 15.8%
[17]
  growth at 10 µM: 28.5%
[18]
  growth at 10 µM: 77.8%
[19]
  growth at 10 µM: 2.46%
[20]
  growth at 10 µM: 14.6%
[21]
  growth at 10 µM: -17.7%
[22]
  GI50: 1.34 µM
  LC50: > 32.5 µM
  TGI: > 32.5 µM
[23]
  GI50: 3.02 µM
  LC50 (concentration killing 50% of cells): > 32.5 µM
  TGI: 12 µM
[24]
  GI50: 1.75 µM
  TGI: > 32.5 µM
[24]; [36]
  CC50: > 32.5 µM
[25]
  GI50: 2.24 µM
  IC50: 2.24 µM
  TGI: > 32.5 µM
[25]; [36]
  CC50: > 32.5 µM
[26]
  GI50: 1.29 µM
  TGI: > 32.5 µM
[26]; [36]
  CC50: > 32.5 µM
[27]
  GI50: 1.57 µM
  TGI: > 32.5 µM
[27]; [36]
  CC50: > 32.5 µM
[28]
  GI50: 13.7 µM
  LC50 (concentration killing 50% of cells): > 32.5 µM
  TGI: > 32.5 µM
[29]
  GI50: 3.18 µM
  LC50 (concentration killing 50% of cells): > 32.5 µM
  TGI: > 32.5 µM
[30]
  GI50: 1.3 µM
  LC50 (concentration killing 50% of cells): 13.8 µM
  TGI: 4.71 µM
[31]
  GI50: 4.34 µM
  TGI: 19.1 µM
[31]; [36]
  CC50: > 32.5 µM
[32]
  GI50: 1.59 µM
  LC50 (concentration killing 50% of cells): > 32.5 µM
  TGI: 7.65 µM
[33]
  growth at 10 µM: 38.1%
[34]
  growth at 10 µM: 5.74%
[35]
  growth at 10 µM: 1.63%
